Here are results for twelve compounds from PubChem BioAssay (NCI).

Some test systems named below: EKVX NSCLC; HCT-15 colon; HL-60(TB) leukemia; HS 578T breast; HT29 colon; KM12 colon; NCI-H226 lung; PC-3 prostate; SK-MEL-5 melanoma; SN12C renal; SNB-75 CNS; UO-31 renal.
Experiment in all cases: NCI anticancer screen, dose series, 48 h

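Exposure lasted 48 hours, with cells grown in 96-well plates and compounds tested at five concentrations. TGI: concentration producing complete growth inhibition.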

As for `CC1=C(C)CC2C(=O)N(c3cc(C(C)(C)C)ccc3C(C)(C)C)C(=O)C2C1` (centres undefined), the TGI in the assay with EKVX NSCLC is over 100 µM; in the assay on HCT-15 colon, over 100 µM; with HL-60(TB) leukemia it was over 100 µM; with HS 578T breast, 56.8 µM; with HT29 colon, over 100 µM; in the assay on KM12 colon, over 100 µM. For the same compound, the TGI in the assay with NCI-H226 lung is over 100 µM; in the assay on PC-3 prostate, over 100 µM; in the assay with SK-MEL-5 melanoma it was over 100 µM; in the assay on SN12C renal, over 100 µM; in the assay on SNB-75 CNS it was 56.2 µM; with UO-31 renal it was over 100 µM.

As to `C[n+]1c2ccc(Cl)cc2nc2cc(-c3ccccc3)ccc21`, the TGI in the assay with EKVX NSCLC was 29.9 µM; with HCT-15 colon, 39 µM; with HL-60(TB) leukemia, 10.7 µM; in the assay on HS 578T breast, 65 µM; in the assay with HT29 colon, over 100 µM; in the assay on KM12 colon it was 33.7 µM. For the same compound, the TGI in the assay on NCI-H226 lung is 44.2 µM; in the assay on PC-3 prostate it was 47.3 µM; in the assay on SK-MEL-5 melanoma it was 24.3 µM; in the assay on SN12C renal, 25.1 µM; in the assay with SNB-75 CNS, 80.1 µM; with UO-31 renal, 48.7 µM.

As for `COc1cccc(C2c3cc4c(cc3OC(N3CCCCC3)C2C)OCO4)c1O` (centres undefined), the TGI with EKVX NSCLC is 56.8 µM; in the assay with HCT-15 colon, 19.9 µM; with HL-60(TB) leukemia, 5.92 µM; in the assay on HS 578T breast, over 26.4 µM; in the assay on HT29 colon, 13.3 µM; with KM12 colon, 23.1 µM. In addition, the TGI is 46.7 µM in the assay with NCI-H226 lung; over 79.8 µM with PC-3 prostate; 16.3 µM in the assay with SK-MEL-5 melanoma; 19.4 µM with SN12C renal; 68.5 µM with SNB-75 CNS; 81.1 µM in the assay on UO-31 renal.

As to `O=C1C=CC(=O)c2c1ccc1c3ccccc3n(CCCCCn3c4ccccc4c4ccc5c(c43)C(=O)C=CC5=O)c21`, the TGI in the assay with EKVX NSCLC is over 94.3 µM; in the assay on HCT-15 colon, 36.2 µM; with HL-60(TB) leukemia, 3.23 µM; in the assay with HS 578T breast it was over 78.7 µM; with HT29 colon, 85.5 µM; in the assay on KM12 colon, over 100 µM. Further, the TGI was over 100 µM in the assay on NCI-H226 lung; 33.9 µM with PC-3 prostate; over 86.1 µM with SK-MEL-5 melanoma; 41.5 µM in the assay on SN12C renal; 32.9 µM in the assay on SNB-75 CNS; 16.4 µM in the assay with UO-31 renal.

Consider `COC[C@@H](N=CC(C)(C)C)C(C)C`, for which the TGI with EKVX NSCLC, in the assay on HCT-15 colon, in the assay with HL-60(TB) leukemia, with HS 578T breast, in the assay with HT29 colon and in the assay on KM12 colon was over 100 µM throughout. The TGI in the assay with NCI-H226 lung, with PC-3 prostate, in the assay on SK-MEL-5 melanoma, in the assay with SN12C renal, in the assay on SNB-75 CNS and in the assay with UO-31 renal was over 100 µM throughout.

As for `Cc1ccc(-n2cnc(C(=N)C#N)c2N)cc1`, the TGI with EKVX NSCLC, in the assay with HCT-15 colon, with HL-60(TB) leukemia, in the assay on HS 578T breast, in the assay with HT29 colon and in the assay with KM12 colon was over 100 µM throughout. Also, the TGI in the assay on NCI-H226 lung, with PC-3 prostate, in the assay on SK-MEL-5 melanoma, with SN12C renal, in the assay with SNB-75 CNS and in the assay with UO-31 renal was over 100 µM in each case.

Consider `O=[N+]([O-])c1ccc(CN(CCCl)OCCCl)cc1`, for which the TGI in the assay on EKVX NSCLC, in the assay with HCT-15 colon, in the assay with HL-60(TB) leukemia, in the assay with HS 578T breast, with HT29 colon and in the assay with KM12 colon was over 100 µM each time. The TGI in the assay with NCI-H226 lung, with PC-3 prostate, with SK-MEL-5 melanoma, in the assay on SN12C renal, with SNB-75 CNS and in the assay with UO-31 renal was over 100 µM in each case.

Regarding `CN1CCc2c([nH]c3ccccc23)C1`, the TGI in the assay with EKVX NSCLC, in the assay with HCT-15 colon, in the assay on HL-60(TB) leukemia, in the assay on HS 578T breast, in the assay with HT29 colon and in the assay on KM12 colon was over 100 µM in each case. In addition, the TGI in the assay with NCI-H226 lung, in the assay with PC-3 prostate, with SK-MEL-5 melanoma, with SN12C renal, with SNB-75 CNS and in the assay on UO-31 renal was over 100 µM in each case.

In the case of `O=c1[nH]nnc2c1sc1ncccc12`, the TGI in the assay on EKVX NSCLC, in the assay on HCT-15 colon, with HL-60(TB) leukemia, with HS 578T breast, with HT29 colon and with KM12 colon was over 100 µM throughout. Also, the TGI in the assay on NCI-H226 lung, in the assay with PC-3 prostate, in the assay on SK-MEL-5 melanoma, in the assay with SN12C renal, with SNB-75 CNS and in the assay on UO-31 renal was over 100 µM throughout.

Regarding `COc1cc(C2c3cc4c(cc3OC(N3CCCCC3)C2C)OCO4)cc(OC)c1O` (centres undefined), the TGI was over 83.4 µM with EKVX NSCLC; over 57.1 µM in the assay with HCT-15 colon; 15.4 µM in the assay on HL-60(TB) leukemia; 31.8 µM with HS 578T breast; over 37.5 µM in the assay with HT29 colon; 50.6 µM in the assay on KM12 colon. Moreover, the TGI is over 64.2 µM in the assay with NCI-H226 lung; 22.2 µM in the assay with PC-3 prostate; 19.8 µM with SK-MEL-5 melanoma; 27.5 µM in the assay with SN12C renal; 13.7 µM with SNB-75 CNS; 34.8 µM in the assay on UO-31 renal.

Consider `CCOC(=O)Nc1[nH]cc(-c2ccccc2)c1C#N`, for which the TGI in the assay with EKVX NSCLC, in the assay with HCT-15 colon, in the assay with HL-60(TB) leukemia, in the assay with HS 578T breast, in the assay with HT29 colon and in the assay on KM12 colon was over 100 µM in each case. The TGI in the assay on NCI-H226 lung, in the assay with PC-3 prostate, with SK-MEL-5 melanoma, in the assay with SN12C renal, with SNB-75 CNS and with UO-31 renal was over 100 µM each time.

Turning to `Brc1ccc2[nH]cc(-c3csc(-c4c[nH]c5ccccc45)n3)c2c1`, the TGI in the assay on EKVX NSCLC is 12 µM; with HCT-15 colon, 6.54 µM; with HL-60(TB) leukemia, 14.2 µM; with HS 578T breast it was over 47.9 µM; in the assay on HT29 colon, 3.29 µM; in the assay on KM12 colon, 5.69 µM. Further, the TGI in the assay on NCI-H226 lung was determined as 4.56 µM; with PC-3 prostate it was 10.2 µM; with SK-MEL-5 melanoma, 5.64 µM; in the assay on SN12C renal, 14.2 µM; with SNB-75 CNS, 23.9 µM; in the assay on UO-31 renal, 11.3 µM.
